Laboratory results taken from PubChem BioAssay (NCI).
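Protocol summary: plate cells (96-well), add compound at 5 concentrations, incubate 48 h, interpolate endpoints linearly. TGI marks complete inhibition of growth.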

Legend:
Assay in all cases: NCI anticancer screen, dose series, 48 h
MOLT-4 leukemia = test system: MOLT-4 leukemia
T-47D breast = test system: T-47D breast
SK-MEL-2 melanoma = test system: SK-MEL-2 melanoma
A549 NSCLC = test system: A549 NSCLC
SNB-75 CNS = test system: SNB-75 CNS
OVCAR-8 ovarian = test system: OVCAR-8 ovarian
RPMI-8226 leukemia = test system: RPMI-8226 leukemia
OVCAR-4 ovarian = test system: OVCAR-4 ovarian
UO-31 renal = test system: UO-31 renal
KM12 colon = test system: KM12 colon
DU-145 prostate = test system: DU-145 prostate
786-0 renal = test system: 786-0 renal
MDA-MB-231 breast = test system: MDA-MB-231 breast
NCI-H226 lung = test system: NCI-H226 lung
PC-3 prostate = test system: PC-3 prostate
TK-10 renal = test system: TK-10 renal
HCT-116 colon = test system: HCT-116 colon
IGROV1 ovarian = test system: IGROV1 ovarian
NCI-H23 lung = test system: NCI-H23 lung
CCRF-CEM leukemia = test system: CCRF-CEM leukemia
ACHN renal = test system: ACHN renal
SF-539 CNS = test system: SF-539 CNS
HOP-92 NSCLC = test system: HOP-92 NSCLC
HCT-15 colon = test system: HCT-15 colon
K-562 leukemia = test system: K-562 leukemia
MDA-N = test system: MDA-N
M14 melanoma = test system: M14 melanoma
SW-620 colon = test system: SW-620 colon
NCI/ADR-RES ovarian = test system: NCI/ADR-RES ovarian
SR leukemia = test system: SR leukemia
SF-268 CNS = test system: SF-268 CNS
HL-60(TB) leukemia = test system: HL-60(TB) leukemia
A498 renal = test system: A498 renal
BT-549 breast = test system: BT-549 breast
UACC-257 melanoma = test system: UACC-257 melanoma
SNB-19 CNS = test system: SNB-19 CNS
MDA-MB-435 = test system: MDA-MB-435
SK-MEL-5 melanoma = test system: SK-MEL-5 melanoma
OVCAR-5 ovarian = test system: OVCAR-5 ovarian
COLO 205 colon = test system: COLO 205 colon
OVCAR-3 ovarian = test system: OVCAR-3 ovarian
HT29 colon = test system: HT29 colon
SF-295 CNS = test system: SF-295 CNS
SN12C renal = test system: SN12C renal
CAKI-1 renal = test system: CAKI-1 renal
NCI-H522 lung = test system: NCI-H522 lung
UACC-62 melanoma = test system: UACC-62 melanoma
RXF 393 renal = test system: RXF 393 renal
MALME-3M melanoma = test system: MALME-3M melanoma
HCC-2998 colon = test system: HCC-2998 colon
U251 CNS = test system: U251 CNS
MCF7 breast = test system: MCF7 breast
SK-MEL-28 melanoma = test system: SK-MEL-28 melanoma
NCI-H460 lung = test system: NCI-H460 lung
HOP-62 NSCLC = test system: HOP-62 NSCLC
LOX IMVI melanoma = test system: LOX IMVI melanoma
SK-OV-3 ovarian = test system: SK-OV-3 ovarian
EKVX NSCLC = test system: EKVX NSCLC

Measured: TGI

CCOP(=O)(OCC)C(N)Cc1ccc(OC)c(OC)c1 (stereo not drawn)
not listed: HOP-62 NSCLC | LOX IMVI melanoma | SK-OV-3 ovarian | EKVX NSCLC
> 100 µM: all other assays above

CCCCOC(=O)NC(Nc1ccc(S(=O)(=O)Nc2ccc(OC)nn2)cc1)(C(F)(F)F)C(F)(F)F
not listed: SK-MEL-2 melanoma | SNB-75 CNS | BT-549 breast | NCI-H522 lung
> 100 µM: all other assays above
